Laboratory results published in US20040002477A1, “Erectile dysfunction remedies containing prostaglandin derivatives as the active ingredient” (priority 2000, published 2004).

Columns and labels:
corpus cavernosum = assay: Corpus cavernosum relaxation activity in cats (norepinephrine-contracted isolated tissue, Magnus tube); assay type: cell-based; conditions: cat corpus cavernosum; for Corpus cavernosum relaxation rate: 10 μM norepinephrine contraction = 100%, Means ± SE
Method: Under anesthesia with urethane, penis of five cats (hybrid, weight about 3.5 kg) was removed. In the krebs solution, a corpus cavernosum was isorated, quartered and suspended with the tention of 200 mg in the Magnus tube. 10 μM norepinephrine was added and the tissue was constricted. Then the stable contraction was checked. After the addition of norepinephrine, (5Z, 9β, 11α, 13E)-17,17-propano-11,16-dihydroxy-9-chloro-20-norprosta-5,13-dienic acid·lysine salt (compound A) and (5Z, 9β, 11α, 13E)-17,17-propano-11,16-dihydroxy-9-chloroprosta-5,13,19-trienic acid (compound B), which are the compounds of the formula (I), were added respectively and the changes of the contraction were measured. As controls, PGE1 and 19-hydroxy-PGE2 were used. Each compounds were disolved in DMSO and used. The contraction induced by 10 μM norepinephrine was considered as 100% and the percentages of the relaxation rate were calculated.

human corpus cavernosum = assay: Corpus cavernosum relaxation activity in human (noradrenalin-contracted isolated tissue, Magnus tube); assay type: cell-based; conditions: for Corpus cavernosum relaxation rate: 10 μM noradrenalin contraction = 100%, added cumulatively, Means ± SE
Method: The samples of the human corpus cavernosum taken at the time of operative treatment in agreement of the patient were suspended with the tention of 500 mg in the Magnus tube fulled by glucose-added Krebs buffer. The 10^−5M (10 μM) noradrenalin-induced contraction reaction, acetylcholine-induced relaxation reaction and electrostimulation(EFS)-induced contraction reaction were checked and the samples responded normaly were used in the experiment. It was reconstricted by 10 μM noradrenalin, the compound A used in the present invention of the formula (I) (n=4), the compound B used in the present invention of the formula (I) (n=5) or PGE1 (n=5), which were disolved by DMSO, were added cumulatively and the relaxation reacton was recorded on the chart. The contraction induced by 10 μM noradrenaline was concidered as 100% and the percentage of the relaxation rate was calculated.

[1] = rat, in vivo, iv
Method: It has been confirmed that the compounds used in the present invention of the formula (I) have sufficiently low toxicity and are sufficiently safe for use as pharmaceutical preparations. For example, the maximal tolerated dose of the compound A (lysine salts) in the compound of the formula (I) was 30 mg/kg weight or more for rat intravenous administration.

Molecule	Corpus cavernosum relaxation rate (corpus cavernosum; dose 0.3 μM) [%]	Corpus cavernosum relaxation rate (corpus cavernosum; dose 1.0 μM) [%]	Intensity of relaxation compared with PGE1 (corpus cavernosum)	Relaxation of corpus cavernosum, dose dependence (corpus cavernosum)	Corpus cavernosum relaxation rate (corpus cavernosum; dose 0.1 μM) [%]	Potency relative to PGE1 (human corpus cavernosum) [times]	Corpus cavernosum relaxation rate (human corpus cavernosum; dose 1.0 μM) [%]	Corpus cavernosum relaxation rate (human corpus cavernosum; dose 10 μM) [%]	Maximal tolerated dose [1] [mg/kg weight]
19-hydroxy-PGE2 [reference compound]	20.0 ± 4.2	27.2 ± 4.7							
CCC1(C(O)C/C=C/C2C(O)CC(Cl)C2C/C=C\CCCC(=O)O)CCC1.NCCCC[C@H](N)C(=O)O (stereo not drawn) [Compound A, (5Z, 9β, 11α, 13E)-17,17-propano-11,16-dihydroxy-9-chloro-20-norprosta-5,13-dienic acid·lysine salt]		35.2 ± 2.8	at the same level as PGE1	dose-dependent relaxasions	26.8 ± 4.2	1.6	29.9 ± 13.7	44.5 ± 12.6	≥ 30
C=CCC1(C(O)C/C=C/[C@@H]2[C@@H](C/C=C\CCCC(=O)O)[C@H](Cl)C[C@H]2O)CCC1 (stereo partly drawn) [Compound B, (5Z, 9β, 11α, 13E)-17,17-propano-11,16-dihydroxy-9-chloroprosta-5,13,19-trienic acid]		36.8 ± 4.2	at the same level as PGE1	dose-dependent relaxasions	18.1 ± 4.8	1.6	25.0 ± 4.4	45.3 ± 4.5	
CCCCC[C@H](O)/C=C/[C@H]1[C@H](O)CC(=O)[C@@H]1CCCCCCC(=O)O [PGE1, prostaglandin E1, reference compound]		35.5 ± 5.0			21.3 ± 2.3		16.8 ± 7.2	27.9 ± 8.8	
